The results in this text go back to patent US12216121B2, “Methods and compositions for spacial and temporal measurement of catalytic activity” (The University of Chicago, priority 2017, dated 2025).

The experiment is described as follows: Specificity of reporter dye (compound 8) towards metal ions and amino acids. The conditions noted are these: 1 mM metal ions, 5 mM H2O2 and amino acids, phosphate buffer pH 7.2; all tested except cysteine. As for the experimental part:
FIG. 5C illustrates the sensitivity of sensing dye, (compound 8) in presence of different analyte such as 1. Phosphate buffer (pH=7.2), 1 mM of 2. Na+, 3. K+, 4. Ca2+, 5. Fe2+, 6. Zn2+, and 5 mM of 7. H2O2, 8. His, 9. Ser, 10. Lys, 11. Val, and 12. Cys. Each intensity is normalized from the intensity of compound 8 before treatment with respective analytes.
The specificity of reporter dye was checked towards thiol disulfide exchange reaction and treated the reporter dye (compound 8) with different metal ions and amino acids.

As to “thiopyridyl conjugated blocked 6′-O propargyl fluorescein [compound 8]”, the “reaction with metal ions and amino acids (fluorescence)” value is listed as “No reaction was observed”.
